The source of these data is patent US20220096650A1 (Glaxosmithkline Intellectual Property Development Limited, priority 2019, published 2022).

Broadly, the Kd is the concentration at which binding is half-saturated. A low value points to higher affinity.

The subject of assay [1] is cells expressing human or cynomolgus PD-1. Particulars: human versus cynomolgus PD-1; cited from earlier work.
Assay [2] addresses T1, cynomolgus PD-1 (cynomolgus).
T1 chain: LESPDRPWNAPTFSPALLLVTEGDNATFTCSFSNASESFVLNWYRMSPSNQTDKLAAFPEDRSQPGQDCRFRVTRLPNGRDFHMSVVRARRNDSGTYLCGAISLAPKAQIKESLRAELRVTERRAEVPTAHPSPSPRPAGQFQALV
The experiment in a line: kinetic analysis (bio-light interferometry).

Regarding “pembrolizumab: monoclonal IgG4 kappa antibody that binds the PD-1 receptor and blocks its interaction with PD-L1 and PD-L2”, in assay [1], the “blocking of binding of human PD-1 ligands to cells expressing human or cynomolgus PD-1” value is on record as “comparable potency”.

B1: Pembrolizumab (antibody, human IgG4 S228P, kappa, V domains shown)
VH: QVQLVQSGVEVKKPGASVKVSCKASGYTFTNYYMYWVRQAPGQGLEWMGGINPSNGGTNFNEKFKNRVTLTTDSSTTTAYMELKSLQFDDTAVYYCARRDYRFDMGFDYWGQGTTVTVSS
VL: EIVLTQSPATLSLSPGERATLSCRASKGVSTSGYSYLHWYQQKPGQAPRLLIYLASYLESGVPARFSGSGSGTDFTLTISSLEPEDFAVYYCQHSRDLPLTFGGGTKVEIKR
notes: also called MK3475
As to B1, the Kd in assay [2] was determined as 0.118 nM.
